# Reference: patent US20110245284A1, “Alkoxy- and Alkylthio-Substituted Anilinopyrimidines” (Bayer CropScience AG, priority 2008, published 2011)
# Tested on: Sphaerotheca fuliginea
# Assay: Sphaerotheca test (cucumber) / protective
# Type: in vivo
# Conditions: Podosphaera fuliginea, 168 h, active compound concentration 500 ppm, evaluation 7 days after inoculation, read-out: efficacy
# Protocol: The plants are subsequently placed in a greenhouse at 70% relative atmospheric humidity and a temperature of 23° C.
row,Structure (SMILES),pest or weed control at 500 ppm [%]
1,CSC(C)c1cccc(Nc2ncc(Br)c(NC3CCC3)n2)c1 (stereo not shown) [Example 13],≥ 70
2,CCS(=O)(=O)C(C)c1cccc(Nc2ncc(Cl)c(NC3CC3)n2)c1 (stereo not shown) [Example 75],≥ 70
3,CCOCCOc1ccc(Nc2ncc(C(F)(F)F)c(NC3CC3)n2)cc1 [Example 91],≥ 70
4,COC(C)c1cc(Nc2ncc(Cl)c(NC3CC3)n2)ccc1C (stereo not shown) [Example 92],≥ 70
5,CCOCCOc1cccc(Nc2ncc(Cl)c(NC3CC3)n2)c1 [Example 93],≥ 70
6,CCSc1cccc(Nc2ncc(C(F)(F)F)c(NC3CC3)n2)c1 [Example 101],≥ 70
7,CCCSc1cccc(Nc2ncc(C(F)(F)F)c(NC3CC3)n2)c1 [Example 109],≥ 70
8,CCS(=O)(=O)c1cccc(Nc2ncc(C(F)(F)F)c(NC3CC3)n2)c1 [Example 116],≥ 70
9,CC[S+]([O-])c1cccc(Nc2ncc(C(F)(F)F)c(NC3CC3)n2)c1 (stereo not shown) [Example 117],≥ 70
10,COCc1cccc(Nc2ncc(C(F)(F)F)c(NCC3CC3)n2)c1 [Example 127],≥ 70

# Tested on: Pyricularia oryzae
# Assay: whole plant or invertebrate
# Type: in vivo
# Conditions: 120 h, read-out: efficacy
row,Structure (SMILES),pest or weed control at 250 ppm [%]
1,CCCSc1cccc(Nc2ncc(Cl)c(NC3CCC3)n2)c1 [Example 5],≥ 80
2,CSC(C)c1cccc(Nc2ncc(Br)c(NC3CCC3)n2)c1 (stereo not shown) [Example 13],≥ 80
3,CSC(C)c1cccc(Nc2ncc(Cl)c(NC3CCC3)n2)c1 (stereo not shown) [Example 14],≥ 80
4,COC(C)c1cccc(Nc2ncc(C(F)(F)F)c(NC3CCC3)n2)c1 (stereo not shown) [Example 19],≥ 80
5,CCS(=O)(=O)C(C)c1cccc(Nc2ncc(Cl)c(NC3CC3)n2)c1 (stereo not shown) [Example 75],≥ 80
6,CCOCCOc1ccc(Nc2ncc(C(F)(F)F)c(NC3CC3)n2)cc1 [Example 91],≥ 80
7,COC(C)c1cc(Nc2ncc(Cl)c(NC3CC3)n2)ccc1C (stereo not shown) [Example 92],≥ 80
8,CCOCCOc1cccc(Nc2ncc(Cl)c(NC3CC3)n2)c1 [Example 93],≥ 80
9,CCSc1cccc(Nc2ncc(C(F)(F)F)c(NC3CC3)n2)c1 [Example 101],≥ 80
10,CCCSc1cccc(Nc2ncc(C(F)(F)F)c(NC3CC3)n2)c1 [Example 109],≥ 80
11,CCS(=O)(=O)c1cccc(Nc2ncc(C(F)(F)F)c(NC3CC3)n2)c1 [Example 116],≥ 80
12,CC[S+]([O-])c1cccc(Nc2ncc(C(F)(F)F)c(NC3CC3)n2)c1 (stereo not shown) [Example 117],≥ 80
13,COCc1cccc(Nc2ncc(C(F)(F)F)c(NCC3CC3)n2)c1 [Example 127],≥ 80

# Tested on: Alternaria solani
# Assay: Alternaria test (tomato) / protective
# Type: in vivo
# Conditions: 72 h, active compound concentration 100 ppm, evaluation 3 days after inoculation, read-out: efficacy
# Protocol: The plants are then placed in an incubation cabinet at about 20° C. and 100% relative atmospheric humidity.
row,Structure (SMILES),pest or weed control at 100 ppm [%]
1,CSC(C)c1cccc(Nc2ncc(Br)c(NC3CCC3)n2)c1 (stereo not shown) [Example 13],≥ 70
2,CSC(C)c1cccc(Nc2ncc(Cl)c(NC3CCC3)n2)c1 (stereo not shown) [Example 14],≥ 70
3,COC(C)c1cc(Nc2ncc(Cl)c(NC3CC3)n2)ccc1C (stereo not shown) [Example 92],≥ 70
4,CCOCCOc1cccc(Nc2ncc(Cl)c(NC3CC3)n2)c1 [Example 93],≥ 70

# Tested on: Rhizoctonia solani
# Assay: Rhizoctonia test (rice) / protective
# Type: in vivo
# Conditions: 96 h, active compound concentration 250 ppm, evaluation 4 days after inoculation, read-out: efficacy
row,Structure (SMILES),pest or weed control at 250 ppm [%]
1,CCCSc1cccc(Nc2ncc(Cl)c(NC3CCC3)n2)c1 [Example 5],≥ 80
2,CSC(C)c1cccc(Nc2ncc(Cl)c(NC3CCC3)n2)c1 (stereo not shown) [Example 14],≥ 80
3,COC(C)c1cccc(Nc2ncc(C(F)(F)F)c(NC3CCC3)n2)c1 (stereo not shown) [Example 19],≥ 80
4,CCOCCOc1ccc(Nc2ncc(C(F)(F)F)c(NC3CC3)n2)cc1 [Example 91],≥ 80
5,CCSc1cccc(Nc2ncc(C(F)(F)F)c(NC3CC3)n2)c1 [Example 101],≥ 80
6,CCCSc1cccc(Nc2ncc(C(F)(F)F)c(NC3CC3)n2)c1 [Example 109],≥ 80
7,CCS(=O)(=O)c1cccc(Nc2ncc(C(F)(F)F)c(NC3CC3)n2)c1 [Example 116],≥ 80
8,CC[S+]([O-])c1cccc(Nc2ncc(C(F)(F)F)c(NC3CC3)n2)c1 (stereo not shown) [Example 117],≥ 80
9,COCc1cccc(Nc2ncc(C(F)(F)F)c(NCC3CC3)n2)c1 [Example 127],≥ 80

# Tested on: not listed separately
# Assay: logP by LC-MS on reversed-phase columns (C 18), method [c], neutral range pH 7.8
# Type: physicochemical
# Conditions: pH 7.8
# Protocol: (§1) The logP values were determined in accordance with EEC Directive 79/831 Annex V.A8 by HPLC (High Performance Liquid Chromatography) on reversed-phase columns (C 18), using the methods below:
# [c] The LC-MS determination in the neutral range is carried out at pH 7.8 using the mobile phases 0.001 molar aqueous ammonium bicarbonate solution and acetonitrile, linear gradient from 10% acetonitrile to 95% acetonitrile.
row,Structure (SMILES),chromatographic logP
1,CCOCCOc1ccc(Nc2ncc(C(F)(F)F)c(NC3CC3)n2)cc1 [Example 91],3.64
2,COC(C)c1cc(Nc2ncc(Cl)c(NC3CC3)n2)ccc1C (stereo not shown) [Example 92],3.7
3,CCOCCOc1cccc(Nc2ncc(Cl)c(NC3CC3)n2)c1 [Example 93],3.3
4,CCSc1cccc(Nc2ncc(C(F)(F)F)c(NC3CC3)n2)c1 [Example 101],4.21
5,CCS(=O)(=O)c1cccc(Nc2ncc(C(F)(F)F)c(NC3CC3)n2)c1 [Example 116],2.8
6,CC[S+]([O-])c1cccc(Nc2ncc(C(F)(F)F)c(NC3CC3)n2)c1 (stereo not shown) [Example 117],2.46

# Tested on: Venturia inaequalis
# Assay: Venturia test (apple) / protective
# Type: in vivo
# Conditions: 240 h, active compound concentration 100 ppm, evaluation 10 days after inoculation, read-out: efficacy
# Protocol: After the spray coating has dried on, the plants are inoculated with an aqueous conidia suspension of the apple scab pathogen Venturia inaequalis and then remain for 1 day in an incubation cabinet at about 20° C. and 100% relative atmospheric humidity.
row,Structure (SMILES),pest or weed control at 100 ppm [%]
1,CSC(C)c1cccc(Nc2ncc(Br)c(NC3CCC3)n2)c1 (stereo not shown) [Example 13],≥ 70
2,CSC(C)c1cccc(Nc2ncc(Cl)c(NC3CCC3)n2)c1 (stereo not shown) [Example 14],≥ 70
3,COC(C)c1cc(Nc2ncc(Cl)c(NC3CC3)n2)ccc1C (stereo not shown) [Example 92],≥ 70
4,CCOCCOc1cccc(Nc2ncc(Cl)c(NC3CC3)n2)c1 [Example 93],≥ 70
5,CCS(=O)(=O)c1cccc(Nc2ncc(C(F)(F)F)c(NC3CC3)n2)c1 [Example 116],≥ 70

# Tested on: not listed separately
# Assay: logP by LC-MS on reversed-phase columns (C 18), method [b], acidic range pH 2.7
# Type: physicochemical
# Conditions: pH 2.7, log p
# Protocol: as §1
# [b] The LC-MS determination in the acidic range is carried out at pH 2.7 using the mobile phases 0.1% aqueous formic acid and acetonitrile (contains 0.1% formic acid), linear gradient from 10% acetonitrile to 95% acetonitrile.
row,Structure (SMILES),chromatographic logP
1,CCCSc1cccc(Nc2ncc(Cl)c(NC3CCC3)n2)c1 [Example 5],3.66
2,CSC(C)c1cccc(Nc2ncc(Br)c(NC3CCC3)n2)c1 (stereo not shown) [Example 13],3.07
3,CSC(C)c1cccc(Nc2ncc(Cl)c(NC3CCC3)n2)c1 (stereo not shown) [Example 14],2.82
4,COC(C)c1cccc(Nc2ncc(C(F)(F)F)c(NC3CCC3)n2)c1 (stereo not shown) [Example 19],3.69
5,CCS(=O)(=O)C(C)c1cccc(Nc2ncc(Cl)c(NC3CC3)n2)c1 (stereo not shown) [Example 75],2.54
6,CCOCCOc1ccc(Nc2ncc(C(F)(F)F)c(NC3CC3)n2)cc1 [Example 91],3.26
7,COC(C)c1cc(Nc2ncc(Cl)c(NC3CC3)n2)ccc1C (stereo not shown) [Example 92],2.11
8,CCOCCOc1cccc(Nc2ncc(Cl)c(NC3CC3)n2)c1 [Example 93],2.13
9,CCSc1cccc(Nc2ncc(C(F)(F)F)c(NC3CC3)n2)c1 [Example 101],3.95
10,CCCSc1cccc(Nc2ncc(C(F)(F)F)c(NC3CC3)n2)c1 [Example 109],4.44
11,CCS(=O)(=O)c1cccc(Nc2ncc(C(F)(F)F)c(NC3CC3)n2)c1 [Example 116],2.74
12,CC[S+]([O-])c1cccc(Nc2ncc(C(F)(F)F)c(NC3CC3)n2)c1 (stereo not shown) [Example 117],2.2

# Tested on: Pyrenophora teres
# Assay: Pyrenophora teres test (barley) / protective
# Type: in vivo
# Conditions: 192 h, active compound concentration 500 ppm, evaluation 8 days after inoculation, read-out: efficacy
# Protocol: After the spray coating has dried on, the plants are sprayed with a spore suspension of Pyrenophora teres. The plants remain in an incubation cabinet for 48 hours at 20° C. and 100% relative atmospheric humidity.
row,Structure (SMILES),pest or weed control at 500 ppm [%]
1,CCCSc1cccc(Nc2ncc(Cl)c(NC3CCC3)n2)c1 [Example 5],≥ 70
2,CSC(C)c1cccc(Nc2ncc(Br)c(NC3CCC3)n2)c1 (stereo not shown) [Example 13],≥ 70
3,CSC(C)c1cccc(Nc2ncc(Cl)c(NC3CCC3)n2)c1 (stereo not shown) [Example 14],≥ 70
4,COC(C)c1cccc(Nc2ncc(C(F)(F)F)c(NC3CCC3)n2)c1 (stereo not shown) [Example 19],≥ 70
5,CCS(=O)(=O)C(C)c1cccc(Nc2ncc(Cl)c(NC3CC3)n2)c1 (stereo not shown) [Example 75],≥ 70
6,CCOCCOc1ccc(Nc2ncc(C(F)(F)F)c(NC3CC3)n2)cc1 [Example 91],≥ 70
7,CCOCCOc1cccc(Nc2ncc(Cl)c(NC3CC3)n2)c1 [Example 93],≥ 70
8,CCSc1cccc(Nc2ncc(C(F)(F)F)c(NC3CC3)n2)c1 [Example 101],≥ 70
9,CCS(=O)(=O)c1cccc(Nc2ncc(C(F)(F)F)c(NC3CC3)n2)c1 [Example 116],≥ 70
10,CC[S+]([O-])c1cccc(Nc2ncc(C(F)(F)F)c(NC3CC3)n2)c1 (stereo not shown) [Example 117],≥ 70
11,COCc1cccc(Nc2ncc(C(F)(F)F)c(NCC3CC3)n2)c1 [Example 127],≥ 70

# Tested on: Leptosphaeria nodorum
# Assay: Leptosphaeria nodorum test (wheat) / protective
# Type: in vivo
# Conditions: Parastagonospora nodorum, active compound concentration 500 ppm, evaluation 7-9 days after inoculation, read-out: efficacy
# Protocol: Thereafter, the plants are placed in a greenhouse at 90% relative atmospheric humidity and a temperature of 22° C.
row,Structure (SMILES),pest or weed control at 500 ppm [%]
1,CCCSc1cccc(Nc2ncc(Cl)c(NC3CCC3)n2)c1 [Example 5],≥ 70
2,CSC(C)c1cccc(Nc2ncc(Br)c(NC3CCC3)n2)c1 (stereo not shown) [Example 13],≥ 70
3,CSC(C)c1cccc(Nc2ncc(Cl)c(NC3CCC3)n2)c1 (stereo not shown) [Example 14],≥ 70
4,COC(C)c1cccc(Nc2ncc(C(F)(F)F)c(NC3CCC3)n2)c1 (stereo not shown) [Example 19],≥ 70
5,CCS(=O)(=O)C(C)c1cccc(Nc2ncc(Cl)c(NC3CC3)n2)c1 (stereo not shown) [Example 75],≥ 70
6,CCOCCOc1ccc(Nc2ncc(C(F)(F)F)c(NC3CC3)n2)cc1 [Example 91],≥ 70
7,COC(C)c1cc(Nc2ncc(Cl)c(NC3CC3)n2)ccc1C (stereo not shown) [Example 92],≥ 70
8,CCOCCOc1cccc(Nc2ncc(Cl)c(NC3CC3)n2)c1 [Example 93],≥ 70
9,CCSc1cccc(Nc2ncc(C(F)(F)F)c(NC3CC3)n2)c1 [Example 101],≥ 70
10,CCCSc1cccc(Nc2ncc(C(F)(F)F)c(NC3CC3)n2)c1 [Example 109],≥ 70
11,CCS(=O)(=O)c1cccc(Nc2ncc(C(F)(F)F)c(NC3CC3)n2)c1 [Example 116],≥ 70
12,CC[S+]([O-])c1cccc(Nc2ncc(C(F)(F)F)c(NC3CC3)n2)c1 (stereo not shown) [Example 117],≥ 70
13,COCc1cccc(Nc2ncc(C(F)(F)F)c(NCC3CC3)n2)c1 [Example 127],≥ 70

# Tested on: Cochliobolus miyabeanus
# Assay: Cochliobolus test (rice) / protective
# Conditions: Bipolaris oryzae, in Oryza sativa, 96 h, read-out: efficacy
# Protocol: Cochliobolus Test (Rice)/Protective • Solvent: 28.5 parts by weight of acetone • Emulsifier: 1.5 parts by weight of alkylaryl polyglycol ether
# 1 day after the treatment, the plants are inoculated with an aqueous spore suspension of Cochliobolus miyabeanus. The plants are then placed in a greenhouse at 100% relative atmospheric humidity and 25° C.
# Evaluation is carried out 4 days after the inoculation.
row,Structure (SMILES),pest or weed control at 250 ppm [%]
1,CCCSc1cccc(Nc2ncc(Cl)c(NC3CCC3)n2)c1 [Example 5],≥ 80
2,COC(C)c1cccc(Nc2ncc(C(F)(F)F)c(NC3CCC3)n2)c1 (stereo not shown) [Example 19],≥ 80
3,CCS(=O)(=O)C(C)c1cccc(Nc2ncc(Cl)c(NC3CC3)n2)c1 (stereo not shown) [Example 75],≥ 80
4,CCOCCOc1ccc(Nc2ncc(C(F)(F)F)c(NC3CC3)n2)cc1 [Example 91],≥ 80
5,COC(C)c1cc(Nc2ncc(Cl)c(NC3CC3)n2)ccc1C (stereo not shown) [Example 92],≥ 80
6,CCOCCOc1cccc(Nc2ncc(Cl)c(NC3CC3)n2)c1 [Example 93],≥ 80
7,CCSc1cccc(Nc2ncc(C(F)(F)F)c(NC3CC3)n2)c1 [Example 101],≥ 80
8,CCCSc1cccc(Nc2ncc(C(F)(F)F)c(NC3CC3)n2)c1 [Example 109],≥ 80
9,CCS(=O)(=O)c1cccc(Nc2ncc(C(F)(F)F)c(NC3CC3)n2)c1 [Example 116],≥ 80
10,CC[S+]([O-])c1cccc(Nc2ncc(C(F)(F)F)c(NC3CC3)n2)c1 (stereo not shown) [Example 117],≥ 80
11,COCc1cccc(Nc2ncc(C(F)(F)F)c(NCC3CC3)n2)c1 [Example 127],≥ 80
